Target: T1, full length human recombinant glucocorticoid receptor (Homo sapiens, UniProt P04150)
T1 construct: It contains some partially purified full length human recombinant glucocorticoid receptor; purchased Panvera/Invitrogen PV4302
T1 sequence (P04150 1-777): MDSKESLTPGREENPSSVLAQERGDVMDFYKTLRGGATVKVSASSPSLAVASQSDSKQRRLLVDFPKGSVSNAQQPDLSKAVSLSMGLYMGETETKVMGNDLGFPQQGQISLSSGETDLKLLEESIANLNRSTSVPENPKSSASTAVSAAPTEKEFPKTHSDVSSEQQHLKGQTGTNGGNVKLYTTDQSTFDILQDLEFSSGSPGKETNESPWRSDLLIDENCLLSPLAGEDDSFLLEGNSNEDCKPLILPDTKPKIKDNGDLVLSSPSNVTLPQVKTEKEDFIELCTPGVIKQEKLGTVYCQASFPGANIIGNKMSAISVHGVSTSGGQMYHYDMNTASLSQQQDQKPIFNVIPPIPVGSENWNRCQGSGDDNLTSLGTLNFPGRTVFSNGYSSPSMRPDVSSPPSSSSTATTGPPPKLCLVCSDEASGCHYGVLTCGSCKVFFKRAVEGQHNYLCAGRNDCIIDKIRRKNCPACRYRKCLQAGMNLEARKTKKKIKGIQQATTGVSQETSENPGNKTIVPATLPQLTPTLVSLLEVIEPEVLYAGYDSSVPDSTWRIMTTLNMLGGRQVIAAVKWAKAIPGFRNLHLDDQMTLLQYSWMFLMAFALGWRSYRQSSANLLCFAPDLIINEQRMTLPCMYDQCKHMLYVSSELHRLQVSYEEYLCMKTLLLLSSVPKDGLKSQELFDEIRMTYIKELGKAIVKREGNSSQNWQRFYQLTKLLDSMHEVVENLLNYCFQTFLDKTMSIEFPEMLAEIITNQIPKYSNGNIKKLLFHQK
Assay: Glucocorticoid Receptor Binding Assay (Glucocorticoid Receptor Competitor Assay far red kit, fluorescence polarization)
Settings: competition with fluorescent GR ligand Fluormone GS Far Red, 3 hours at 22° C., pH 7.4; Ki calculated from IC50 by Cheng-Prusoff
Summary of the method: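 Fluorescence polarization competition with partially purified full-length human recombinant GR, stabilizing peptide and Fluormone GS Far Red tracer in screening buffer pH 7.4; 3 hours at 22° C in the dark, read at 610–660 nm. IC50 from sigmoidal fit; Ki by Cheng-Prusoff.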

Ki | SMILES
8 nM | C[C@@H](c1cc(Oc2cccc(CC(=O)O)c2)ccc1Cl)[C@](O)(c1ccc2c(c1)N(C)C(=O)CO2)C(F)(F)F (relative stereo) [Example 12, (3-{4-Chloro-3-[3,3,3-trifluoro-2-hydroxy-1-methyl-2-(4-methyl-3-oxo-3,4-dihydro-2H-benzo[1,4]oxazin-6-yl)-propyl]-phenoxy}-phenyl)-acetic acid]
3 nM | COc1cc(-c2ccc([C@@H](C)[C@@](O)(c3ccc4oc(=O)n(C)c4c3)C(F)(F)F)c(Cl)c2)ccc1C(=O)O (stereo in doubt) [Example 132, 3′-Chloro-3-methoxy-4′-[3,3,3-trifluoro-2-hydroxy-1-methyl-2-(3-methyl-2-oxo-2,3-dihydro-benzooxazol-5-yl)-propyl]-biphenyl-4-carboxylic acid]
3.3 nM | COC(=O)c1ccc(Oc2ccc([C@@H](C)[C@@](O)(c3ccc4oc(=O)n(C)c4c3)C(F)(F)F)c(Cl)c2)nc1Cl (stereo in doubt) [Example 182, 2-Chloro-6-{3-chloro-4-[3,3,3-trifluoro-2-hydroxy-1-methyl-2-(3-methyl-2-oxo-2,3-dihydro-benzooxazol-5-yl)-propyl]-phenoxy}-nicotinic acid methyl ester]
9.7 nM | CCOC(=O)c1ccc(COc2ccc(Cl)c([C@H](C)[C@](O)(c3ccc4c(c3)N(C)C(=O)CO4)C(F)(F)F)c2)cc1 (stereo in doubt) [Example 1, 4-{4-Chloro-3-[3,3,3-trifluoro-2-hydroxy-1-methyl-2-(4-methyl-3-oxo-3,4-dihydro-2H-benzo[1,4]oxazin-6-yl)-propyl]-phenoxymethyl}-benzoic acid ethyl ester]
14.8 nM | C[C@H](c1ccc(Oc2ncccc2C(=O)O)cc1Cl)[C@@](O)(c1ccc2c(c1)n(C)c(=O)n2C)C(F)(F)F (stereo in doubt) [Example 105, 2-{3-Chloro-4-[2-(1,3-dimethyl-2-oxo-2,3-dihydro-1H-benzoimidazol-5-yl)-3,3,3-trifluoro-2-hydroxy-1-methyl-propyl]-phenoxy}-nicotinic acid]
1.3 nM | C[C@H](c1ccc(Oc2ccc(C(=O)O)c(F)c2)cc1Cl)[C@@](O)(c1ccc2oc(=O)n(C)c2c1)C(F)(F)F (stereo in doubt) [Example 177, 4-{3-Chloro-4-[3,3,3-trifluoro-2-hydroxy-1-methyl-2-(3-methyl-2-oxo-2,3-dihydro-benzooxazol-5-yl)-propyl]-phenoxy}-2-fluoro-benzoic acid]
1.1 nM | C[C@H](c1ccc(Oc2cc(Cl)c(C(=O)O)cn2)cc1Cl)[C@@](O)(c1ccc2c(c1)n(C)c(=O)n2C)C(F)(F)F (stereo in doubt) [Example 109, 4-Chloro-6-{3-chloro-4-[2-(1,3-dimethyl-2-oxo-2,3-dihydro-1H-benzoimidazol-5-yl)-3,3,3-trifluoro-2-hydroxy-1-methyl-propyl]-phenoxy}-nicotinic acid]
5 nM | COc1cc(Oc2ccc([C@@H](C)[C@@](O)(c3ccc4c(c3)n(C)c(=O)n4C)C(F)(F)F)c(Cl)c2)ccc1C(=O)O (relative stereo) [Example 97, 4-{3-Chloro-4-[2-(1,3-dimethyl-2-oxo-2,3-dihydro-1H-benzoimidazol-5-yl)-3,3,3-trifluoro-2-hydroxy-1-methyl-propyl]-phenoxy}-2-methoxy-benzoic acid]
7.5 nM | CCOC(=O)c1cccc(Oc2ccc(Cl)c([C@H](C)[C@](O)(c3ccc4c(c3)N(C)C(=O)CO4)C(F)(F)F)c2)c1 (relative stereo) [Example 5, 3-{4-Chloro-3-[3,3,3-trifluoro-2-hydroxy-1-methyl-2-(4-methyl-3-oxo-3,4-dihydro-2H-benzo[1,4]oxazin-6-yl)-propyl]-phenoxy}-benzoic acid ethyl ester]
28.1 nM | COC(=O)c1ccc(-c2ccc([C@@H](C)[C@@](O)(c3ccc4c(c3)NC(=O)CO4)C(F)(F)F)c(Cl)c2)cc1F (relative stereo) [Example 71, 3′-Chloro-3-fluoro-4′-[3,3,3-trifluoro-2-hydroxy-1-methyl-2-(3-oxo-3,4-dihydro-2H-benzo[1,4]oxazin-6-yl)-propyl]-biphenyl-4-carboxylic acid methyl ester]
3.7 nM | CC(c1ccc(Oc2ccc(C(=O)O)cc2Cl)cc1Cl)C(O)(c1ccc2c(c1)n(C)c(=O)n2C)C(F)(F)F (stereo not drawn) [Example 87, 3-Chloro-4-{3-chloro-4-[2-(1,3-dimethyl-2-oxo-2,3-dihydro-1H-benzoimidazol-5-yl)-3,3,3-trifluoro-2-hydroxy-1-methyl-propyl]-phenoxy}-benzoic acid]
9.2 nM | CCOC(=O)COc1ccc(Cl)c([C@H](C)[C@](O)(c2ccc3c(c2)N(C)C(=O)CO3)C(F)(F)F)c1 (stereo in doubt) [Example 3, {4-Chloro-3-[3,3,3-trifluoro-2-hydroxy-1-methyl-2-(4-methyl-3-oxo-3,4-dihydro-2H-benzo[1,4]oxazin-6-yl)-propyl]-phenoxy}-acetic acid ethyl ester]
1 nM | COC(=O)c1ccc(-c2ccc([C@@H](C)[C@@](O)(c3ccc4oc(=O)n(C)c4c3)C(F)(F)F)c(Cl)c2)c(F)c1 (relative stereo) [Example 125, 3′-Chloro-2-fluoro-4′-[3,3,3-trifluoro-2-hydroxy-1-methyl-2-(3-methyl-2-oxo-2,3-dihydro-benzooxazol-5-yl)-propyl]-biphenyl-4-carboxylic acid methyl ester]
0.8 nM | C[C@@H](c1ccc(Oc2ccc(C(=O)O)c(Cl)c2)cc1Cl)[C@](O)(c1ccc2c(c1)N(C)C(=O)CO2)C(F)(F)F [Example 219, 2-Chloro-4-{3-chloro-4-[(1S,2S)-3,3,3-trifluoro-2-hydroxy-1-methyl-2-(4-methyl-3-oxo-3,4-dihydro-2H-benzo[1,4]oxazin-6-yl)-propyl]-phenoxy}-benzoic acid]
1.5 nM | COC(=O)c1cnc(Oc2ccc([C@@H](C)[C@@](O)(c3ccc4c(c3)N(C)C(=O)CO4)C(F)(F)F)c(Cl)c2)cc1Cl (racemic) [Example 210, 4-Chloro-6-{3-chloro-4-[3,3,3-trifluoro-2-hydroxy-1-methyl-2-(4-methyl-3-oxo-3,4-dihydro-2H-benzo[1,4]oxazin-6-yl)-propyl]-phenoxy}-nicotinic acid methyl ester]
128 nM | CCN1C(=O)COc2ccc([C@](O)([C@H](C)c3ccc(-c4ccc(C(=O)O)c(F)c4)cc3Cl)C(F)(F)F)cc21 (relative stereo) [Example 65, 3′-Chloro-4′-[2-(4-ethyl-3-oxo-3,4-dihydro-2H-benzo[1,4]oxazin-6-yl)-3,3,3-trifluoro-2-hydroxy-1-methyl-propyl]-3-fluoro-biphenyl-4-carboxylic acid]
0.5 nM | C[C@H](c1ccc(-c2ccc(OCC(=O)O)cc2)cc1Cl)[C@@](O)(c1ccc2oc(=O)n(C)c2c1)C(F)(F)F (stereo in doubt) [Example 130, {3′-Chloro-4′-[3,3,3-trifluoro-2-hydroxy-1-methyl-2-(3-methyl-2-oxo-2,3-dihydro-benzooxazol-5-yl)-propyl]-biphenyl-4-yloxy}-acetic acid]
2.2 nM | C[C@H](c1ccc(-c2cccc(CC(=O)O)c2)cc1Cl)[C@@](O)(c1ccc2c(c1)n(C)c(=O)n2C)C(F)(F)F (stereo in doubt) [Example 83, {3′-Chloro-4′-[2-(1,3-dimethyl-2-oxo-2,3-dihydro-1H-benzoimidazol-5-yl)-3,3,3-trifluoro-2-hydroxy-1-methyl-propyl]-biphenyl-3-yl}-acetic acid]
3.9 nM | C[C@@H](c1cc(Oc2ccc(C(=O)O)c(F)c2)ccc1Cl)[C@](O)(c1ccc2c(c1)N(C)C(=O)CO2)C(F)(F)F (relative stereo) [Example 14, 4-{4-Chloro-3-[3,3,3-trifluoro-2-hydroxy-1-methyl-2-(4-methyl-3-oxo-3,4-dihydro-2H-benzo[1,4]oxazin-6-yl)-propyl]-phenoxy}-2-fluoro-benzoic acid]
3.1 nM | C[C@H](c1ccc(Oc2ccc(F)c(C(=O)O)c2)cc1Cl)[C@@](O)(c1ccc2c(c1)OCC(=O)N2C)C(F)(F)F (relative stereo) [Example 167, 5-{3-Chloro-4-[3,3,3-trifluoro-2-hydroxy-1-methyl-2-(4-methyl-3-oxo-3,4-dihydro-2H-benzo[1,4]oxazin-7-yl)-propyl]phenoxy}-2-fluoro-benzoic acid]
1.4 nM | C[C@H](c1ccc(-c2ccc(C(=O)O)cc2Cl)cc1Cl)[C@@](O)(c1ccc2c(c1)n(C)c(=O)n2C)C(F)(F)F (stereo in doubt) [Example 81, 2,3′-Dichloro-4′-[2-(1,3-dimethyl-2-oxo-2,3-dihydro-1H-benzoimidazol-5-yl)-3,3,3-trifluoro-2-hydroxy-1-methyl-propyl]-biphenyl-4-carboxylic acid]
